We go through 20 compounds from BindingDB's records for doi:10.1111/cbdd.12822 (Wuhan University of Technology, 2016).

The target in one experiment is Acetylcholinesterase (Electrophorus electricus, UniProt O42275). The experiment can be described thus: AChE and BuChE Inhibition Assay. The note with it: pH 8; 25 °C. The protocol: (§1) This spectrophotometric assay is based on the reaction of 5,5-dithio-bis(2-nitrobenzoic)acid (DTNB) with thiocholine to yield a colored product. Shimadzu (Kyoto, Japan) UV-1700 UV-vis spectrophotometer was used to record the measurements. The enzyme solutions were prepared at 2.5 units/mL concentrationin 1% gelatin solution. BChE/AChE and compound solutions (50 μL each) in 2% DMSO at 10^-1-10^-6 mM concentration were added to 3 mL phosphate buffer (pH 8 &plusnm; 0.1)followed by incubation for 5 min at 25 °C. The reaction was commenced by the addition of acetylthiocholine iodide (ATC) (10 μL) and DTNB (50 μL) to the enzyme-inhibitor mixture. […] The blank reading contained 10 μL substrate, 50 μL DTNB, 50 μL (2%) DMSO, and 3 mL buffer. The reaction was performed in triplicate.

Experiment [1] has as its target Carboxylic ester hydrolase (Equus caballus, UniProt Q9N1N9). As to the kind of experiment: AChE and BuChE Inhibition Assay. The conditions noted are these: pH 8; 25 °C. The protocol:
as §1

Experiment [2] addresses T1, Amine oxidase [flavin-containing] A (Rattus norvegicus, UniProt P21396).
T1 sequence (P21396 whole entry): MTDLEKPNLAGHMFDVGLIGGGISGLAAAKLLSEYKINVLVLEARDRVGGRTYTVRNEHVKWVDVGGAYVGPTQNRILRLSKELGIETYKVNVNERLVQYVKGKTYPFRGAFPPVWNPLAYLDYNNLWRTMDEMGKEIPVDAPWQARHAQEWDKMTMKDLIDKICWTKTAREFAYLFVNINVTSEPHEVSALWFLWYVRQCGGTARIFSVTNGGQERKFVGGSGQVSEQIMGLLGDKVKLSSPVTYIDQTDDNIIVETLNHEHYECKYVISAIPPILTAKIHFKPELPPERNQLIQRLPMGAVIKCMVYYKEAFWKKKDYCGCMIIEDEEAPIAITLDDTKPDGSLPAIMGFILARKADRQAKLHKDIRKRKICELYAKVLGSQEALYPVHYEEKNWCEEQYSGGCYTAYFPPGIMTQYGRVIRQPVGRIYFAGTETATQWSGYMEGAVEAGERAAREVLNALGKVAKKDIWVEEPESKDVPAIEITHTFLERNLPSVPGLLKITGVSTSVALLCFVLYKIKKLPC
The experiment can be described thus: Monoamine Oxidase Assay. The conditions noted are these: pH 7.4; 38 °C.

Experiment [3] has as its target T2, Amine oxidase [flavin-containing] B (Rattus norvegicus, UniProt P19643).
T2 sequence (P19643 whole entry): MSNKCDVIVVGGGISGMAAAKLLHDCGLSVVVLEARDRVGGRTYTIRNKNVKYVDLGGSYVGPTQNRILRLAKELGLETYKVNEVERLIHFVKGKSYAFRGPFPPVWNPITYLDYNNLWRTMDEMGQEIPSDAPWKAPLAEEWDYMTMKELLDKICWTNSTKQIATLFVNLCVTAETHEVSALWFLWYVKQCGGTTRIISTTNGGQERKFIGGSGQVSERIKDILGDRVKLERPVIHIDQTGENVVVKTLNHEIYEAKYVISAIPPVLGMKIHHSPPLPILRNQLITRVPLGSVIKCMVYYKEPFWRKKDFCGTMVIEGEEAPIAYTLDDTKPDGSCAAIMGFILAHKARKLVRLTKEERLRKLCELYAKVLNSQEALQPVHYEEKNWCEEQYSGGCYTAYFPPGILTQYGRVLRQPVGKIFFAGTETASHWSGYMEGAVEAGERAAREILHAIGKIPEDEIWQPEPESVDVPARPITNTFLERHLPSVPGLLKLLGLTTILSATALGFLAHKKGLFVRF
The experiment can be described thus: Monoamine Oxidase Assay. The conditions noted are these: pH 7.4; 38 °C.

Chain of Acetylcholinesterase (O42275 whole entry): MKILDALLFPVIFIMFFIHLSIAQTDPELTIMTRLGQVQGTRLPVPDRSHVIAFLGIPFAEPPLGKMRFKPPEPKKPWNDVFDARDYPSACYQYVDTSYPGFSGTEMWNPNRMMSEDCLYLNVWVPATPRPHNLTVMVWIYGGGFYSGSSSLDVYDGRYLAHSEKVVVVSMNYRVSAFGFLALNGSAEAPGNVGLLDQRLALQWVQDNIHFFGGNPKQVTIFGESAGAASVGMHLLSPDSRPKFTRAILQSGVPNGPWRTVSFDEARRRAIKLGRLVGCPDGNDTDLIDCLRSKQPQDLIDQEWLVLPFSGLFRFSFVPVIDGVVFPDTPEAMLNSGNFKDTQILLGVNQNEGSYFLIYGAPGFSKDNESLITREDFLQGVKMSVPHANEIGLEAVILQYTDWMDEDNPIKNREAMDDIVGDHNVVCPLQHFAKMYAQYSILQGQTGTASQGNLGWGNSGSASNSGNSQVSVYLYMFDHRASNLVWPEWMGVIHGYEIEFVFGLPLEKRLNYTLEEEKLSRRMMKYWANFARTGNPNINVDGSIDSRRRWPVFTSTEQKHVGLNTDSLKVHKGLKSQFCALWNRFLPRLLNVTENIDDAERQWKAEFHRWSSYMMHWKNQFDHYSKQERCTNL
Chain of Carboxylic ester hydrolase (Q9N1N9 whole entry): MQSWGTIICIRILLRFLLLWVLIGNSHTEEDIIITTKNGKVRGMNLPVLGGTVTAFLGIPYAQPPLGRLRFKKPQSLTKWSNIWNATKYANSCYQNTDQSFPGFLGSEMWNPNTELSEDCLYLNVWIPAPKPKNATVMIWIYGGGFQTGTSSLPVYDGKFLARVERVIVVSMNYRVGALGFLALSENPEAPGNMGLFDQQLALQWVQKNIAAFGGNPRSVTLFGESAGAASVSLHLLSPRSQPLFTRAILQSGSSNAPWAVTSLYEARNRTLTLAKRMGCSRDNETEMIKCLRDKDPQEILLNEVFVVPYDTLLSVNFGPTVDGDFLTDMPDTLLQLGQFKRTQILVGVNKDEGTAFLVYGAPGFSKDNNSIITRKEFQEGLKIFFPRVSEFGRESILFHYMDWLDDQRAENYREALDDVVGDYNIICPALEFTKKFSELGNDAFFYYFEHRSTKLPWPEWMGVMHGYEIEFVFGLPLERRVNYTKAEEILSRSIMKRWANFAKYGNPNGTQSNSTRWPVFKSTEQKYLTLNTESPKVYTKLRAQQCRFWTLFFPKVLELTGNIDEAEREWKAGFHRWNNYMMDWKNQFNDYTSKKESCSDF

Consider `COc1cc(/C=C2\CC(C)c3ccccc3C2=O)c(Br)c(OC)c1OC` (stereo not given) [2-(2-Bromo-3,4,5-trimethoxy-benzylidene)-4-methyl-tetralone (3f)], for which the IC50 against Acetylcholinesterase worked out at 0.045 µM; in experiment [1] it was 12.5 µM; in experiment [2], 0.92 µM; in experiment [3] it was 0.88 µM.

For `COc1ccc(OC)c2c1CC/C(=C\c1cc(OC)c(OC)c(OC)c1Br)C2=O` [2-(2-Bromo-3,4,5-trimethoxy-benzylidene)-5,8-dimethoxy-tetralone (3x)], the IC50 at Acetylcholinesterase was 0.27 µM; in experiment [1], 9.8 µM; in experiment [2] it was > 100 µM; in experiment [3] it was > 100 µM.

For `COc1ccc2c(c1)CC/C(=C\c1cc(OC)c(OC)c(OC)c1Br)C2=O` [2-(2-Bromo-3,4,5-trimethoxy-benzylidene)-6-methoxy-tetralone (3o)], the IC50 at Acetylcholinesterase is 1.2 µM; in experiment [1], 17.5 µM; in experiment [2], 32.2 µM; in experiment [3], 12.4 µM.

On to `COc1cc(/C=C2\CCc3ccc([N+](=O)[O-])cc3C2=O)c(Br)c(OC)c1OC` [2-(2-Bromo-3,4,5-trimethoxy-benzylidene)-7-nitro-tetralone (3ag)], for which the IC50 at Acetylcholinesterase was determined as 0.57 µM; in experiment [1], 6.2 µM; in experiment [2], 0.99 µM; in experiment [3], 0.91 µM.

As to `COc1ccc(/C=C2\CCc3ccc([N+](=O)[O-])cc3C2=O)c(Cl)c1OC` [2-(2-Chloro-3,4-dimethoxy-benzylidene)-7-nitro-tetralone (3af)], the IC50 was 2.92 µM against Acetylcholinesterase, 17.5 µM in experiment [1], 1.24 µM in experiment [2] and 2.9 µM in experiment [3].

`COc1cc(/C=C2\CCc3ccccc3C2=O)c(Br)c(OC)c1OC` [(2E)-2-[(2-bromo-3,4,5-trimethoxyphenyl)methylidene]-1,2,3,4-tetrahydronaphthalen-1-one (3c)]: the IC50 is 12.4 µM on Acetylcholinesterase, > 100 µM in experiment [1], 27.3 µM in experiment [2] and 5.6 µM in experiment [3].

In the case of `COc1cc(/C=C2\CCc3c(O)cccc3C2=O)c(Br)c(OC)c1OC` [(2E)-2-[(2-bromo-3,4,5-trimethoxyphenyl)methylidene]-5-hydroxy-1,2,3,4-tetrahydronaphthalen-1-one (3i)], the IC50 against Acetylcholinesterase was > 100 µM; in experiment [1], 76.9 µM; in experiment [2], > 100 µM; in experiment [3], 37.2 µM.

Regarding `COc1cccc2c1CC/C(=C\c1cc(OC)c(OC)c(OC)c1Br)C2=O` [(2E)-2-[(2-bromo-3,4,5-trimethoxyphenyl)methylidene]-5-methoxy-1,2,3,4-tetrahydronaphthalen-1-one (3r)], the IC50 is 67.2 µM at Acetylcholinesterase, 92.5 µM in experiment [1], > 100 µM in experiment [2] and 56 µM in experiment [3].

For `COc1cc2c(cc1OC)C(=O)/C(=C/c1cc(OC)c(OC)c(OC)c1Br)CC2` [(2E)-2-[(2-bromo-3,4,5-trimethoxyphenyl)methylidene]-6,7-dimethoxy-1,2,3,4-tetrahydronaphthalen-1-one (3u)], the IC50 was 4.5 µM against Acetylcholinesterase, > 100 µM in experiment [1], > 100 µM in experiment [2] and 2.9 µM in experiment [3].

On to `COc1cc(/C=C2\CCc3ccc(Cl)cc3C2=O)c(Br)c(OC)c1OC` [(2E)-2-[(2-bromo-3,4,5-trimethoxyphenyl)methylidene]-7-chloro-1,2,3,4-tetrahydronaphthalen-1-one (3l)], for which the half-maximal inhibitory concentration (IC50) against Acetylcholinesterase is > 100 µM; in experiment [1] it was 48.9 µM; in experiment [2] it was > 100 µM; in experiment [3] it was > 100 µM.

Turning to `COc1cc(/C=C2\CCc3ccc(F)cc3C2=O)c(Br)c(OC)c1OC` [(2E)-2-[(2-bromo-3,4,5-trimethoxyphenyl)methylidene]-7-fluoro-1,2,3,4-tetrahydronaphthalen-1-one (3ad)], the IC50 was > 100 µM on Acetylcholinesterase, 89.4 µM in experiment [1], 10.9 µM in experiment [2] and 1.2 µM in experiment [3].

As for `COc1ccc(/C=C2\CC(C)c3ccccc3C2=O)c(Cl)c1OC` (stereo not given) [(2E)-2-[(2-chloro-3,4-dimethoxyphenyl)methylidene]-4-methyl-1,2,3,4-tetrahydronaphthalen-1-one (3e)], the IC50 worked out at 0.12 µM at Acetylcholinesterase, 27.2 µM in experiment [1], 8.9 µM in experiment [2] and 1.9 µM in experiment [3].

In the case of `COc1ccc(OC)c2c1CC/C(=C\c1ccc(OC)c(OC)c1Cl)C2=O` [(2E)-2-[(2-chloro-3,4-dimethoxyphenyl)methylidene]-5,8-dimethoxy-1,2,3,4-tetrahydronaphthalen-1-one (3w)], the IC50 on Acetylcholinesterase was 2.4 µM; in experiment [1], 24.7 µM; in experiment [2], > 100 µM; in experiment [3], > 100 µM.

Consider `COc1ccc(/C=C2\CCc3c(O)cccc3C2=O)c(Cl)c1OC` [(2E)-2-[(2-chloro-3,4-dimethoxyphenyl)methylidene]-5-hydroxy-1,2,3,4-tetrahydronaphthalen-1-one (3h)], for which the IC50 was > 100 µM on Acetylcholinesterase, > 100 µM in experiment [1], > 100 µM in experiment [2] and 48.9 µM in experiment [3].

For the compound `COc1cccc2c1CC/C(=C\c1ccc(OC)c(OC)c1Cl)C2=O` [(2E)-2-[(2-chloro-3,4-dimethoxyphenyl)methylidene]-5-methoxy-1,2,3,4-tetrahydronaphthalen-1-one (3q)], the IC50 was 81.2 µM against Acetylcholinesterase, > 100 µM in experiment [1], > 100 µM in experiment [2] and 63.7 µM in experiment [3].

Turning to `COc1cc2c(cc1OC)C(=O)/C(=C/c1ccc(OC)c(OC)c1Cl)CC2` [(2E)-2-[(2-chloro-3,4-dimethoxyphenyl)methylidene]-6,7-dimethoxy-1,2,3,4-tetrahydronaphthalen-1-one (3t)], the IC50 on Acetylcholinesterase is 27.2 µM; in experiment [1], > 100 µM; in experiment [2] it was > 100 µM; in experiment [3] it was 5.4 µM.

Consider `COc1ccc2c(c1)CC/C(=C\c1ccc(OC)c(OC)c1Cl)C2=O` [(2E)-2-[(2-chloro-3,4-dimethoxyphenyl)methylidene]-6-methoxy-1,2,3,4-tetrahydronaphthalen-1-one (3n)], for which the IC50 turned out to be 14.6 µM at Acetylcholinesterase, 22.9 µM in experiment [1], 47.2 µM in experiment [2] and 19.2 µM in experiment [3].

For the compound `COc1ccc(/C=C2\CCc3ccc(F)cc3C2=O)c(Cl)c1OC` [(2E)-2-[(2-chloro-3,4-dimethoxyphenyl)methylidene]-7-fluoro-1,2,3,4-tetrahydronaphthalen-1-one (3ac)], the IC50 was > 100 µM on Acetylcholinesterase, > 100 µM in experiment [1], 17.2 µM in experiment [2] and 2.9 µM in experiment [3].

As for `COc1cccc(/C=C2\CC(C)c3ccccc3C2=O)c1Cl` (stereo not given) [(2E)-2-[(2-chloro-3-methoxyphenyl)methylidene]-4-methyl-1,2,3,4-tetrahydronaphthalen-1-one (3d)], the IC50 came out at 1.9 µM at Acetylcholinesterase, 49.9 µM in experiment [1], 10.2 µM in experiment [2] and 3.2 µM in experiment [3].

For `COc1cccc(/C=C2\CCc3c(OC)ccc(OC)c3C2=O)c1Cl` [(2E)-2-[(2-chloro-3-methoxyphenyl)methylidene]-5,8-dimethoxy-1,2,3,4-tetrahydronaphthalen-1-one (3v)], the IC50 against Acetylcholinesterase was 13.2 µM; in experiment [1], > 100 µM; in experiment [2], > 100 µM; in experiment [3], > 100 µM.

The IC50 is the midpoint of a concentration-inhibition curve. Read a low IC50 as greater potency.
